Measured values published in patent publication US6660770B2, “Pesticidal activity of functionalized alkenes” (North Carolina State University, priority 1999, dated 2003).

Columns and labels:
Mosquito larvae = assay: Mosquito larval mortality bioassay; type: in vivo; conditions: mosquito larval mortality followed for three days in microtiter plates; compound dissolved in dimethylsulfoxide; Brewer's yeast
Protocol: Mosquito larval mortality was followed for three days in microtiter plates containing 160 μL sterile water, 1-4 μL of the test compound dissolved in dimethylsulfoxide, and 10 μL of 2% Brewer's yeast. Controls were run under the same conditions without the test compounds. Larval mortality in the controls was 3% for 1-3 μL dimethylsulfoxide, and up to 20% for 4 μL dimethylsulfoxide.

Ornithodoros parkeri = assay: Repellent assay for ticks; type: in vivo; conditions: ten ticks; for # ticks on acetone: control paper opposite the compound paper; for # ticks on compound: test paper saturated with 60 uL of 15 mg/ml test solution
Protocol: A repellent assay for ticks is carried out as follows: (1) Prepare 15 mg/ml test solution of test compound in 100% acetone in individual 500 uL bullet tubes. Prepare control solution (1 uL olive oil plus 100 uL 100 acetone). (2) prepare half circle test papers (radious =2.25 cm) from Whatman filter paper (# 2 qualitative). (3) Saturate test papers with 60 uL of 100% acetone, control, or test solution. Test papers are in individual sterile petri dishes during this process. (4) Allow test papers to air dry at room temperature for one hour. (5) Select and place ten ticks into separate sterile glass petri dishes. Allow ticks to acclimate to covered dishes for one hour. (6) Transfer one test paper treated with a test solution and one test paper treated with the control solution to each of separate sterile petri dish bottoms. On control included two test papers treated with acetone. A second control included two test papers treated with the control solution. (7) Place ten ticks in between the two test papers. Place the test arenas in a dark room at room temperature. (8) Record the location of ticks 15 minutes, 1 hour and 2 hours after being placed in the test arenas.

SMILES | Activity (LD50) (Mosquito larvae) [mM] | # ticks on acetone (Ornithodoros parkeri; 15 minutes) | # ticks on acetone (Ornithodoros parkeri; 1 hour) | # ticks on acetone (Ornithodoros parkeri; 2 hours) | also measured
O=C(O)CCCCCCc1ccccc1 [7-Phenylheptanoic acid] | 0.19 ± 0.02 |  |  |  | 
O=C(O)CC/C=C/CCC1CCCCC1 [Compound 172, E-7-(Cyclohexyl)hept-4-enoic Acid] |  | 8 | 10 | 10 | # ticks on compound (Ornithodoros parkeri; 15 minutes): 2
CCOC(=O)CC/C=C/CCC1CCCCC1 [Compound 218, Ethyl E-7-(Cyclohexyl)hept-4-enoate] |  | 10 | 10 | 10 | 
CCOC(=O)CC/C=C/CCc1ccc(-c2ccccc2)cc1 [Compound 221, Ethyl E-7-((4-phenyl)phenyl)hept-4-enoate] |  | 5 | 4 | 8 | # ticks on compound (Ornithodoros parkeri; 15 minutes): 5; # ticks on compound (Ornithodoros parkeri; 1 hour): 4; # ticks on compound (Ornithodoros parkeri; 2 hours): 2
O=C(O)CC/C=C/CCc1ccc(O)cc1 [E-7-(4-Hydroxyphenyl)hept-4-enoic acid, E-7-(4-hydroxyphenyl)hept-4-enoic acid] | 0.59 ± 0.03 |  |  |  | 
COc1ccc(CC/C=C/CCC(=O)O)cc1 [E-7-(4-Methoxyphenyl)hept-4-enoic acid] | 1.28 |  |  |  | 
O=C(O)CC/C=C/CCc1ccccc1 [E-7-Phenylhept-4-enoic acid] | <0.08 |  |  |  | 
